The values that follow come from ChEMBL document CHEMBL1811878, “Heteroatom-substituted analogues of orphan nuclear receptor small heterodimer partner ligand and apoptosis inducer (E)-4-[3-(1-Adamantyl)-4-hydroxyphenyl]-3-chlorocinnamic acid” (J Med Chem, 2011).

Each structure is given as a SMILES string. In brackets after ≈: the same amount, converted by molar mass. Activity calls are given as the source filed them. The calls are words filed in the database; no cut-off is given here.

In series [1] the target is T1, Retinoic acid receptor alpha (Homo sapiens) (UniProt P10276).
T1 sequence (whole entry): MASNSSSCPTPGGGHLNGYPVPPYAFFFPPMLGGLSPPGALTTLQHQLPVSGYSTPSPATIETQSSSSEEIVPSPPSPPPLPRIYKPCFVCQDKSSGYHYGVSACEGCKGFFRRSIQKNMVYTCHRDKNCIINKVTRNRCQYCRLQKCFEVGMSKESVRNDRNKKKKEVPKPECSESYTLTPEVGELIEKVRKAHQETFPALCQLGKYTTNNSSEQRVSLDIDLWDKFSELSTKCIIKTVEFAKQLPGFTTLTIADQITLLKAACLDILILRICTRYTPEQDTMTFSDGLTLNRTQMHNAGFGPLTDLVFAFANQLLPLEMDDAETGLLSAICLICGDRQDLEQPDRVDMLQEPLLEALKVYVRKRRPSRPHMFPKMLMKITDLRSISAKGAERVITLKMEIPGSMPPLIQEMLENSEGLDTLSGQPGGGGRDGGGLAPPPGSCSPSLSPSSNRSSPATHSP
The series is described as follows: Transcriptional activation of human RARalpha at 1 uM by (TREpal)2-tk-CAT reporter gene assay.

For series [2], the target named is T2, Retinoic acid receptor beta (Homo sapiens) (UniProt P10826).
T2 sequence (whole entry): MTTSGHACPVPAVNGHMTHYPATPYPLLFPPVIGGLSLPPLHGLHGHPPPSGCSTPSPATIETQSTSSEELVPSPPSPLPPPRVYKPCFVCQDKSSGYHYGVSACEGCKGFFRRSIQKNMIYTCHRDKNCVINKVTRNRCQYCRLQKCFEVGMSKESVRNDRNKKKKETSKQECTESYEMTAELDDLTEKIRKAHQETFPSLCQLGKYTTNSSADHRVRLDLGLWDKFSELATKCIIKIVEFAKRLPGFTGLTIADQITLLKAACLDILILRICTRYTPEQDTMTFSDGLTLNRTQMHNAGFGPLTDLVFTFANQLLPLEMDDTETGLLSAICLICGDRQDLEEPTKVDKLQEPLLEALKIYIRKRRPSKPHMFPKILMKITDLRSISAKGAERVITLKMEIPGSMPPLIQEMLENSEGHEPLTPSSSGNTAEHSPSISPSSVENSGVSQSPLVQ
Kind of series: Transcriptional activation of human RARbeta at 0.1 uM by luciferase reporter gene assay relative to control.

Series [3] has as its target T2, Retinoic acid receptor beta (Homo sapiens). The series is described as follows: Transcriptional activation of human RARbeta at 1 uM by (TREpal)2-tk-CAT reporter gene assay.
The target in series [4] is T3, Retinoic acid receptor gamma (Homo sapiens) (UniProt P13631).
T3 sequence (whole entry): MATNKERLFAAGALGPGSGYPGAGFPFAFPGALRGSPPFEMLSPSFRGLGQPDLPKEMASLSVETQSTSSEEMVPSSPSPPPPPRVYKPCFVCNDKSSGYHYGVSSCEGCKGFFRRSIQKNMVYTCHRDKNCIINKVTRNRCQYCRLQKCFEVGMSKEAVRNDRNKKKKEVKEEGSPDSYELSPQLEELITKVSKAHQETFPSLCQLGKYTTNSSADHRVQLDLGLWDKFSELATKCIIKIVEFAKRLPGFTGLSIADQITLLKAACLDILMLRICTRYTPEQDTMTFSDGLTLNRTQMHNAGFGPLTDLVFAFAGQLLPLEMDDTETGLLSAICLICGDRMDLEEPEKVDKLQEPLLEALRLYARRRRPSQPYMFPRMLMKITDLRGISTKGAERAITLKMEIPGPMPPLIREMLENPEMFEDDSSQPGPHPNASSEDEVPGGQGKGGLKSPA
Kind of series: Transcriptional activation of human RARgamma at 0.1 uM by luciferase reporter gene assay relative to control.

Series [5] is described as follows: Induction of apoptosis in retinoid-resistant p53 null human HL60R cells assessed as DNA fragmentation at 1 uM after 24 hrs by acridine orange staining method. Type of series: functional.
Series [6] can be described thus: Induction of apoptosis in retinoid-resistant p53 null human HL60R cells assessed as DNA fragmentation at 0.1 uM after 24 hrs by acridine orange staining method. The format is functional.
Series [7] deals with T3, Retinoic acid receptor gamma (Homo sapiens). Kind of series: Transcriptional activation of human RARgamma at 1 uM by (TREpal)2-tk-CAT reporter gene assay.
The target of series [8] is T1, Retinoic acid receptor alpha (Homo sapiens). Kind of series: Transcriptional activation of human RARalpha at 0.1 uM by luciferase reporter gene assay relative to control.
For a further series, the system named is OVCAR-3. The series is described as follows: Antiproliferative activity against human OVCAR3 cell. Type of series: functional, cell-based.
The subject of series [9] is Mus musculus. The series is described as follows: Toxicity in ICR-SCIDS mouse assessed as decrease in body weight at 20 mg/kg, iv qd administered at a 25% increment in dose each day for 7 days measured on day 7 relative to body weight on day 1. The format is organism-based. Also on record: dose 20 mg/kg, route intravenous; scale not given: the % may be the effect or the level left. The following applies: in vivo, 168 h.

Series [10] concerns Mus musculus. The series is described as follows: Toxicity in ICR-SCIDS mouse harboring xenograft assessed as exhibiting symptoms of dehydration at 20 mg/kg, iv qd administered alternate days for a total of 15 doses measured on day 9. Also on record: dose 20 mg/kg, route intravenous. The settings on record: in vivo. The format is organism-based.
Series [11] has as its system Mus musculus. The series is described as follows: Toxicity in ICR-SCIDS mouse harboring xenograft assessed as decreased physical activity at 20 mg/kg, iv qd administered alternate days for a total of 15 doses measured on day 9. The format is organism-based. Details: dose 20 mg/kg, route intravenous. The following applies: in vivo.
Series [12] deals with KG-1. Kind of series: Growth inhibition in human KG1 cells expressing p53 gene at 5 uM after 48 hrs by MTT assay. The settings on record: KG-1, 48 h, read-out: GI. The format is functional.
For series [13], the system named is PC-3. The series is described as follows: Induction of apoptosis in human PC3 cells assessed as decrease in ATP level at 5 uM after 72 hrs by luminescence assay. The format is functional. Also on record: scale not given: the % may be the effect or the level left.
Series [14] has as its system Mus musculus. Kind of series: Toxicity in ICR-SCIDS mouse assessed as increase in body weight at 20 mg/kg, iv qd administered at a 25% increment in dose each day for 7 days measured on day 4. Also on record: dose 20 mg/kg, route intravenous. The following applies: in vivo, 168 h. The format is organism-based.
The subject of series [15] is Mus musculus. The series is described as follows: Toxicity in ICR-SCIDS mouse harboring xenograft assessed as occurrence of scruffy coat at 20 mg/kg, iv qd administered alternate days for a total of 15 doses measured on day 9. The format is organism-based. Also on record: dose 20 mg/kg, route intravenous. The following applies: in vivo.
Series [16] relates to HT-29. The series is described as follows: Induction of apoptosis in human HT-29 cells assessed as decrease in ATP level after 72 hrs by luminescence assay. The format is functional, cell-based.
Series [17] relates to Mus musculus. The series is described as follows: Toxicity in ICR-SCIDS mouse assessed as increase in body weight at 20 mg/kg, iv qd administered at a 25% increment in dose each day for 7 days measured on day 1. Type of series: organism-based. Also on record: dose 20 mg/kg, route intravenous. The following applies: in vivo, 168 h.
For series [18], the system named is PC-3. The series is described as follows: Induction of apoptosis in human PC3 cells assessed as decrease in ATP level at 10 uM after 72 hrs by luminescence assay. The format is functional, cell-based.
Series [19] relates to HT-29. Kind of series: Induction of apoptosis in human HT-29 cells assessed as decrease in ATP level at 10 uM after 72 hrs by luminescence assay. Type of series: functional.
Series [20] in a line: Aqueous solubility of the compound in PBS at pH 7.2 by UV spectrophotometric analysis. Type of series: physicochemical. The settings on record: PBS, read-out: solubility.
Series [21] relates to Mus musculus. Kind of series: Toxicity in ICR-SCIDS mouse harboring xenograft assessed as occurrence of diarrhea at 20 mg/kg, iv qd administered alternate days for a total of 15 doses measured on day 9. The format is organism-based. The settings on record: in vivo. Also on record: dose 20 mg/kg, route intravenous.
For series [22], the system named is A549. Kind of series: Induction of apoptosis in human A549 cells assessed as decrease in ATP level after 72 hrs by luminescence assay. The format is functional, cell-based.
Series [23] has as its system A549. The series is described as follows: Induction of apoptosis in human A549 cells assessed as decrease in ATP level at 5 uM after 72 hrs by luminescence assay. The format is functional. Also on record: scale not given: the % may be the effect or the level left.
In series [24] the test system is Mus musculus. Kind of series: Toxicity in ICR-SCIDS mouse assessed as decrease in body weight at 20 mg/kg, iv qd administered at a 25% increment in dose each day for 7 days measured on day 8 relative to control. The format is organism-based. Also on record: dose 20 mg/kg, route intravenous; scale not given: the % may be the effect or the level left. The following applies: in vivo, 168 h.

The nature of series [25]: Induction of apoptosis in mouse MMTV-Wnt-1 cells assessed as cell viability after 72 hrs by DAPI staining based cell counting. Type of series: functional.
Series [26] relates to KG-1. Kind of series: Growth inhibition in human KG1 cells expressing p53 gene at 1 uM after 48 hrs by MTT assay. Type of series: functional. The settings on record: KG-1, 48 h, read-out: GI.
Series [27] deals with HT-29. The series is described as follows: Induction of apoptosis in human HT-29 cells assessed as decrease in ATP level at 5 uM after 72 hrs by luminescence assay. Details: scale not given: the % may be the effect or the level left. Type of series: functional.
Series [28] relates to KG-1. Kind of series: Induction of apoptosis in human KG1 cells assessed as DNA fragmentation at 5 uM after 48 hrs by acridine orange staining method. The format is functional.
The subject of series [29] is Mus musculus. Kind of series: Toxicity in ICR-SCIDS mouse harboring xenograft assessed as body weight loss at 20 mg/kg, iv qd administered alternate days for a total of 15 doses measured on day 9. Type of series: organism-based. Also on record: dose 20 mg/kg, route intravenous. The following applies: in vivo.
Series [30] relates to KG-1. The series is described as follows: Induction of apoptosis in human KG1 cells expressing p53 gene assessed as DNA fragmentation at 1 uM after 48 hrs by acridine orange staining method. Type of series: functional.
For series [31], the system named is A549. The series is described as follows: Induction of apoptosis in human A549 cells assessed as decrease in ATP level at 10 uM after 72 hrs by luminescence assay. Type of series: functional, cell-based.
Series [32] concerns PC-3. Kind of series: Induction of apoptosis in human PC3 cells assessed as decrease in ATP level after 72 hrs by luminescence assay. The format is functional, cell-based.

For `O=C(O)/C=C/c1ccc(-c2ccc(O)c(C34CC5CC(CC(C5)C3)C4)c2)cc1` [ADAROTENE], the Activity in series [1] turned out to be 8%; in [3], 85%; in [5], 98%; in series [6], 90%; in [7], 103%. Also, the values for the fold change (FC) in series [2], in [4] and in series [8] were 6, 25 and 6, respectively.

Turning to `O=C(O)c1ccc2cc(-c3ccc(O)c(C45CC6CC(CC(C6)C4)C5)c3)ccc2c1` [O-DEMETHYLATED ADAPALENE], the Activity in series [1] came out at 21%; in [3] it was 78%; in series [5], 98%; in series [6], 73%; in [7] it was 88%. The fold change (FC) in series [2] turned out to be 20; in [4], 50; in [8] it was 10. Also, the 50% inhibitory concentration (IC50) in the series with OVCAR-3 came to 130 nM.

On to `O=C(O)/C=C/c1cnc(-c2ccc(O)c(C34CC5CC(CC(C5)C3)C4)c2)nc1`, for which the Activity is recorded as 100.9% in the series on Mus musculus [9]; “Non-toxic” with Mus musculus [10]; “Non-toxic” in the series with Mus musculus [11]; 35% with PC-3 [13]; 5.7% in the series with Mus musculus [14]; “Non-toxic” in the series with Mus musculus [15]. The Activity result is “Dose-dependent effect” with HT-29 [16]; 5.7% in the series with Mus musculus [17]; “Non-toxic” with Mus musculus [21]; “Dose-dependent effect” in the series with A549 [22]; 35% in the series on A549 [23]; 100% with Mus musculus [24]. Moreover, the Activity in the series with HT-29 [27] was 15%; with KG-1 [28] it was 50%; in the series on Mus musculus [29], “Non-toxic”; with KG-1 [30] it was 40%; in the series on PC-3 [32] it was “Dose-dependent effect”. The inhibition of growth at 5 µM with KG-1 [12] is 100%. Besides, the result with PC-3 [18] and with A549 [31] was Active. For the same compound, in the series with HT-29 [19], the outcome was inactive. Also, the solubility in [20] was 0.44 µM (≈ 0.166 µg/mL). The IC50 in [25] came out at 60 nM. Also, the inhibition of growth at 1 µM in the series on KG-1 [26] came out at 100%.
